# Laboratory results as given in PubChem BioAssay (NCI).
#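 How tested: cells in 96-well plates exposed to compound for 48 hours at five concentrations. TGI is the concentration that stops growth completely.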 Where a SMILES comes first, the peptide text is derived from it. The star is where a group is joined. Boc = CC(C)(C)OC(=O)*; tBu = CC(C)(C)*
# What was measured:
# Assay in all cases: DTP human tumour cell line panel, 48 h
# ACHN renal = tested on: ACHN renal
# CAKI-1 renal = tested on: CAKI-1 renal
# CCRF-CEM leukemia = tested on: CCRF-CEM leukemia
# HL-60(TB) leukemia = tested on: HL-60(TB) leukemia
# HOP-62 NSCLC = tested on: HOP-62 NSCLC
# HT29 colon = tested on: HT29 colon
# M14 melanoma = tested on: M14 melanoma
# MALME-3M melanoma = tested on: MALME-3M melanoma
# MDA-MB-435 = tested on: MDA-MB-435
# OVCAR-3 ovarian = tested on: OVCAR-3 ovarian
# OVCAR-4 ovarian = tested on: OVCAR-4 ovarian
# SF-268 CNS = tested on: SF-268 CNS
# SK-MEL-2 melanoma = tested on: SK-MEL-2 melanoma
# SK-MEL-28 melanoma = tested on: SK-MEL-28 melanoma
# SK-MEL-5 melanoma = tested on: SK-MEL-5 melanoma
# SK-OV-3 ovarian = tested on: SK-OV-3 ovarian
# SNB-19 CNS = tested on: SNB-19 CNS
# U251 CNS = tested on: U251 CNS
# UACC-257 melanoma = tested on: UACC-257 melanoma
# UACC-62 melanoma = tested on: UACC-62 melanoma
SMILES,TGI (ACHN renal) [µM],TGI (CAKI-1 renal) [µM],TGI (CCRF-CEM leukemia) [µM],TGI (HL-60(TB) leukemia) [µM],TGI (HOP-62 NSCLC) [µM],TGI (HT29 colon) [µM],TGI (M14 melanoma) [µM],TGI (MALME-3M melanoma) [µM],TGI (MDA-MB-435) [µM],TGI (OVCAR-3 ovarian) [µM],TGI (OVCAR-4 ovarian) [µM],TGI (SF-268 CNS) [µM],TGI (SK-MEL-2 melanoma) [µM],TGI (SK-MEL-28 melanoma) [µM],TGI (SK-MEL-5 melanoma) [µM],TGI (SK-OV-3 ovarian) [µM],TGI (SNB-19 CNS) [µM],TGI (U251 CNS) [µM],TGI (UACC-257 melanoma) [µM],TGI (UACC-62 melanoma) [µM]
COc1cccc(N2C(=O)C3CC(CC(C)(C)C)c4c([nH]c5ccccc45)C3C2=O)c1 (stereo not given),> 10,> 10,> 10,> 10,> 10,> 10,> 10,> 10,> 10,> 10,> 10,> 10,> 10,> 10,> 10,> 10,> 10,> 10,> 10,> 10
O=C(O)Cc1ccc(Oc2nc3ccccc3nc2-c2ccccc2)cc1,> 100,> 100,> 100,> 100,> 100,> 100,> 100,> 100,> 100,65.6,> 100,> 100,> 100,> 100,> 100,> 100,> 100,> 100,> 100,75.7
O/N=C1\CSc2ccccc2C1,> 100,> 100,> 100,> 100,> 100,> 100,> 100,> 100,> 100,> 100,> 100,> 100,> 100,> 100,> 100,> 100,> 100,> 100,> 100,> 100
Nc1nc2c(c(=O)[nH]1)NC(CCNc1ccc(C(=O)O)cc1)CN2 (stereo not given),> 100,> 100,> 100,> 100,> 100,> 100,> 100,> 100,> 100,> 100,> 100,> 100,> 100,> 100,> 100,> 100,> 100,> 100,> 100,> 100
CC1=CC(=O)c2c(O)c3c(c(O)c2C1=O)C1C(O)C(C3=O)C23C(=O)c4c(O)c(C)cc(O)c4C(O)=C2C(=O)CC(O)C13 (stereo not given),7.44,3.57,> 100,> 100,6.21,7.05,10.5,2.91,2.81,7.75,28,7.54,3.79,6.78,4,6.86,20.2,15.9,3.5,3.24
CCN(CC)Cc1ccc(Nc2c3ccccc3nc3ccccc23)cc1,1.22,4.66,8.28,> 100,6.84,22.3,3.15,3.61,4.17,12.8,7.64,9.38,7.27,4.69,3.15,5.56,3.22,6.68,3.21,3.66
COc1cccc(Nc2nc(NS(=O)(=O)c3cc(C)c(Cl)cc3S)n[nH]2)c1,> 100,> 100,> 100,> 100,> 100,> 100,> 100,> 100,> 100,> 100,> 100,> 100,> 100,> 100,> 100,> 100,> 100,> 100,> 100,> 100
COc1cccc(/C=C2/S/C(=N/Nc3nc(C)c(C(C)=O)s3)NC2=O)c1O,51.6,> 100,50.7,46,> 100,> 100,> 100,88.2,> 100,60.3,> 100,> 100,48,> 100,43.5,> 100,> 100,44,86.2,43.9
CN(CCCNC(=O)c1c2ccc3ccccc3c2nn1C)CCCNC(=O)c1c2ccc3ccccc3c2nn1C,23.8,15.3,23.6,29.8,33.7,6.93,3.99,8.71,6.09,37.3,24,25.6,13.3,4.6,5.92,28.4,28.6,22.1,3.57,3.76
CC(OC(C)(C)C)C(NC(=O)C(N)CCCCNC(=O)OC(C)(C)C)C(=O)NC(Cc1ccccc1)C(=O)O (stereo not given) (H-Lys(Boc)-Thr(tBu)-Phe-OH; configuration not given here),> 100,> 100,> 100,> 100,> 100,> 100,> 100,> 100,> 100,> 100,> 100,> 100,> 100,> 100,> 100,> 100,> 100,> 100,> 100,> 100
